Laboratory results reported in BindingDB's records for doi:10.1021/jm00099a006 (Merck Research Laboratories, 1992).

These molecules were tested against T1, Gag-Pol polyprotein [588-1027]/[588-1147] (Human immunodeficiency virus 1, UniProt P04585) (assay: HIV-1 RT Assay). Details: pH 8.2.
T1 construct: 588-1027; 588-1147

SMILES	IC50 [µM]
CCc1cc(C(=O)CN2C(=O)c3ccccc3C2=O)c(OC)nc1C [2-[2-(5-ethyl-2-methoxy-6-methylpyridin-3-yl)-2-oxoethyl]-2,3-dihydro-1H-isoindole-1,3-dione]	> 300
CCc1cc(C(=O)CN2C(=O)c3ccccc3C2=O)c(=O)[nH]c1C [2-[2-(5-ethyl-6-methyl-2-oxo-1,2-dihydropyridin-3-yl)-2-oxoethyl]-2,3-dihydro-1H-isoindole-1,3-dione]	> 300
CCc1cc(CCCN2C(=O)c3ccccc3C2=O)c(OC)nc1C [2-[3-(5-ethyl-2-methoxy-6-methylpyridin-3-yl)propyl]-2,3-dihydro-1H-isoindole-1,3-dione]	> 300
CCc1cc(CCN2C(=O)c3ccccc3C2=O)c(OC)nc1C [2-[2-(5-ethyl-2-methoxy-6-methylpyridin-3-yl)ethyl]-2,3-dihydro-1H-isoindole-1,3-dione]	6.2
CCc1cc(C(O)CN2C(=O)c3ccccc3C2=O)c(OC)nc1C (stereo not drawn) [2-[2-(5-ethyl-2-methoxy-6-methylpyridin-3-yl)-2-hydroxyethyl]-2,3-dihydro-1H-isoindole-1,3-dione]	> 300
CCc1cc(C(O)CN2C(=O)c3ccccc3C2=O)c(O)nc1C (stereo not drawn) [2-[2-(5-ethyl-6-methyl-2-oxo-1,2-dihydropyridin-3-yl)-2-hydroxyethyl]-2,3-dihydro-1H-isoindole-1,3-dione]	> 300
CCc1cc(CN2C(=O)c3ccccc3C2=O)c(OC)nc1C [2-[(5-ethyl-2-methoxy-6-methylpyridin-3-yl)methyl]-2,3-dihydro-1H-isoindole-1,3-dione]	16
O=C1c2ccccc2C(=O)N1CCc1cccnc1O [2-[2-(2-oxo-1,2-dihydropyridin-3-yl)ethyl]-2,3-dihydro-1H-isoindole-1,3-dione]	> 300
